A short description of series [1]: Harmlessness / toxicity.
The nature of series [2]: Stability / storage of the nitro colorant in (oxidation) dyeing composition or reducing alkaline medium. The format is physicochemical. The following applies: oxidation dye composition with ammonia and sodium bisulphite (Examples 26, 27).

Take `Cc1c(NCCN)cc([N+](=O)[O-])c(N)c1C` [4-amino-5,6-dimethyl-3-nitro-N-β-aminoethylaniline]: the harmlessness result in series [1] was “particularly harmless”. Turning to `CCN(CC)CCNc1cc([N+](=O)[O-])c(N)c(C)c1C` [4-amino-5,6-dimethyl-3-nitro-N-(β-diethylaminoethyl)aniline], the harmlessness entry in series [1] was “particularly harmless”.

As for `Cc1cc(N)c([N+](=O)[O-])c(C)c1N` [2,6-dimethyl-3-nitroparaphenylenediamine], the harmlessness result in series [1] is recorded as “particularly harmless”. The “stability of the nitro colorant in the liquid composition” value in series [2] was “preserved”. For `Cc1c(NCC(O)CO)cc([N+](=O)[O-])c(N)c1C` (stereo not drawn) [4-amino-5,6-dimethyl-3-nitro-N-β,γ-dihydroxypropylaniline], the harmlessness result in series [1] was “particularly harmless”. In the case of `Cc1c(N)cc([N+](=O)[O-])c(N)c1C` [5,6-dimethyl-3-nitroparaphenylenediamine], the harmlessness entry in series [1] is “particularly harmless”. Moreover, in series [2], the “stability of the nitro colorant in the liquid composition” value was “stable in the liquid composition”. For `CNc1c(C)cc(N)c([N+](=O)[O-])c1C` [4-amino-2,6-dimethyl-3-nitro-N-methylaniline], in series [1], the harmlessness entry is given as “particularly harmless”. As to `Cc1c(NCCO)cc([N+](=O)[O-])c(N)c1C` [4-amino-5,6-dimethyl-3-nitro-N-β-hydroxyethylaniline], the harmlessness result in series [1] is “particularly harmless”.

Source of the values: patent US4736067A, “New dimethyl derivatives of 3-nitro-4-aminoaniline, process for their preparation and their use for dyeing keratinic fibers” (L'Oreal, priority 1983, dated 1988).
